Data taken from patent publication US12419306B2, “Mesostigmata mite control composition” (MEIJI SEIKA PHARMA CO., LTD., priority 2018, dated 2025).

How the values were obtained:
Format in all cases: in vivo
[1] = test system: red mites (Dermanyssus gallinae); experiment: Test Example 1: Control Effect 1 on Red Mites, Pasteur pipette contact test, 72 hours; settings: for Ratio of dead and affected mites: 72 hours, unfed adult red mites
Excerpt: The tip of a Pasteur pipette was sealed with Parafilm, and a methanol solution of the compound A, or each pesticide (another pesticide) (single agent) described in the left columns of Tables 2, 4, and 6 described below, or a mixture (mixed agent) of the compound A and each pesticide described in the left column of Tables 2, 4, and 6 described below at a predetermined concentration was poured into the pipette through an upper portion thereof. One minute later, the Parafilm at the tip was detached, and the liquid agent was discharged. After the pipette was air dried, absorbent cotton was inserted to an upper end of the pipette, and 20 unfed adult red mites (Dermanyssus gallinae) were released into the pipette. After the tip was sealed with Hemato-Seal, the pipette was stored in the dark in an incubator at a temperature of 27 to 28° C. and a humidity of 50 to 60%. […] Then, the ratio (%) of dead and affected mites was calculated according to the following formula. The ratio (%) of dead and affected mites={(the number of dead mites+the number of affected mites)/(the number of survived mites+the number of affected mites+the number of dead mites)}×100

[2] = test system: red mites (Dermanyssus gallinae); experiment: Test Example 2: Control Effect 2 on Red Mites, Pasteur pipette contact test, 3 hours; settings: unfed adult red mites
Protocol: One minute later, the Parafilm at the tip was detached, and the liquid agent was discharged. […] Then, the ratio (%) of dead and affected mites was calculated according to the following formula.

[3] = test system: red mites (Dermanyssus gallinae); experiment: Test Example 3: Control Effect 3 on Red Mites, Pasteur pipette contact test, 3 hours; settings: unfed adult red mites
Excerpt: The tip of a Pasteur pipette was sealed with Parafilm, and a methanol solution of the compound represented by the formula (11), the compound represented by the formula (12), or flupyrimin (single agent), or a mixture (mixed agents) of the compound represented by the formula (11) or the compound represented by the formula (12) and flupyrimin at a predetermined concentration was poured into the pipette from an upper portion thereof. One minute later, the Parafilm at the tip was removed, and the liquid agent was discharged. After the pipette was air dried, absorbent cotton was inserted to an upper end of the pipette, and 20 unfed adult red mites (Dermanyssus gallinae) were released into the pipette. After the tip was sealed with Hemato-Seal, the pipette was stored in the dark in an incubator at a temperature of 27 to 28° C. and a humidity of 50 to 60%. After 3 hours had passed since the treatment, the mites were observed under a stereomicroscope to determine whether the mites were dead or alive and whether the mites were affected. Then, the ratio (%) of dead and affected mites was calculated according to the following formula. The ratio (%) of dead and affected mites={(the number of dead mites+the number of affected mites)/(the number of survived mites+the number of affected mites+the number of dead mites)}×100

[4] = Dermanyssus gallinae, 72 h, read-out: Ratio of dead and affected mites

CC(C)=CC1C(C(=O)OCc2cccc(Oc3ccccc3)c2)C1(C)C (stereo not drawn) [Phenothrin, phenothrin]
pest or weed control at 500 ppm [1, 4]: 65.2%

CNC(=O)Oc1cccc2c1OC(C)(C)O2 [Bendiocarb, bendiocarb]
pest or weed control at 50 ppm [1, 4]: 30.5%

CNC(=O)Oc1cccc2ccccc12 [Carbaryl, carbaryl]
pest or weed control at 50 ppm [1, 4]: 46.6%

CC(C)=CC1C(C(=O)OCN2C(=O)C3=C(CCCC3)C2=O)C1(C)C (stereo not drawn) [Tetramethrin, tetramethrin (phthalthrin)]
pest or weed control at 10 ppm [1, 4]: 39.8%

CC1(C)[C@H](C(=O)O[C@H](C#N)c2cccc(Oc3ccccc3)c2)[C@@H]1C=C(Br)Br [Deltamethrin, deltamethrin]
pest or weed control at 50 ppm [1, 4]: 75.8%

COC(=O)Oc1c(C)c(C)nc2ccc(F)c(F)c12 [Formula (13)]
Ratio of dead and affected mites ([2]; single agent 10 ppm): 89.9%

COP(=O)(OC)C(O)C(Cl)(Cl)Cl (stereo not drawn) [Trichlorfon, trichlorfon]
pest or weed control at 200 ppm [1, 4]: 84.7%

CNC(=O)Oc1ccccc1OC(C)C [Propoxur, propoxur]
pest or weed control at 200 ppm [1, 4]: 77.9%

COP(=S)(OC)Oc1ccc([N+](=O)[O-])c(C)c1 [Fenitrothion, fenitrothion]
pest or weed control at 200 ppm [1, 4]: 71.8%

O=C(N=c1ccccn1Cc1ccc(Cl)nc1)C(F)(F)F [Flupyrimin, flupyrimin]
Ratio of dead and affected mites ([1]; single agent 50 ppm): 65.3%
Ratio of dead and affected mites ([1]; single agent 200 ppm): 58.6%
Ratio of dead and affected mites ([1]; single agent 1000 ppm): 83.2%
Ratio of dead and affected mites ([1]; single agent 5000 ppm): 75.0%
Ratio of dead and affected mites ([3]; single agent 50 ppm): 48.8%
Ratio of dead and affected mites ([3]; single agent 200 ppm): 48.5%
Ratio of dead and affected mites ([3]; single agent 1000 ppm): 40.9%

CCc1nc2ccc(F)c(F)c2c(OC(=O)C2CC2)c1C [Formula (11)]
Ratio of dead and affected mites ([3]; single agent 10 ppm): 53.4%
Ratio of dead and affected mites ([3]; single agent 20 ppm): 62.9%
Ratio of dead and affected mites ([2]; single agent 5 ppm): 53.7%
Ratio of dead and affected mites ([2]; single agent 10 ppm): 53.4%
Ratio of dead and affected mites ([2]; single agent 20 ppm): 62.9%

CCC(C)c1ccccc1OC(=O)NC (stereo not drawn) [Fenobucarb, fenobucarb]
pest or weed control at 50 ppm [1, 4]: 43.5%

CC1(C)C(C=C(Cl)Cl)C1C(=O)OCc1cccc(Oc2ccccc2)c1 (stereo not drawn) [Permethrin, permethrin]
pest or weed control at 50 ppm [1, 4]: 49.6%

abamectin
Ratio of dead and affected mites ([1]; single agent 50 ppm): 69.9%

CCc1nc2ccc(F)c(F)c2c(OC(=O)OC)c1C [Formula (12)]
Ratio of dead and affected mites ([3]; single agent 20 ppm): 65.5%
Ratio of dead and affected mites ([2]; single agent 10 ppm): 50.0%
Ratio of dead and affected mites ([2]; single agent 20 ppm): 65.5%
